Tests used:
human mGlu1 receptor = human mGlu1 receptor (Homo sapiens, UniProt Q13255); assay: FITM binding affinity at mGlu1
mGlu5 = mGlu5 (Homo sapiens, UniProt P41594); assay: FITM selectivity for mGlu1 over mGlu5; format: cell-based; details: mGlu1 versus mGlu5, Fig. S12
[1] = biological target: wild-type (WT) full-length human mGlu1 receptor (Homo sapiens, UniProt Q13255); assay: FITM-mediated antagonism of glutamate at wild-type full-length receptor; format: cell-based; details: WT full-length human mGlu1, versus glutamate
mGlu1 [2] = details: mGlu1 NAM potency of FITM and analogs used for docking; cited from earlier work
mGlu1 [3] = assay: potency; format: cell-based; details: relative to FITM; ref 9 values

Sequence of mGlu5 (P41594 21-1212): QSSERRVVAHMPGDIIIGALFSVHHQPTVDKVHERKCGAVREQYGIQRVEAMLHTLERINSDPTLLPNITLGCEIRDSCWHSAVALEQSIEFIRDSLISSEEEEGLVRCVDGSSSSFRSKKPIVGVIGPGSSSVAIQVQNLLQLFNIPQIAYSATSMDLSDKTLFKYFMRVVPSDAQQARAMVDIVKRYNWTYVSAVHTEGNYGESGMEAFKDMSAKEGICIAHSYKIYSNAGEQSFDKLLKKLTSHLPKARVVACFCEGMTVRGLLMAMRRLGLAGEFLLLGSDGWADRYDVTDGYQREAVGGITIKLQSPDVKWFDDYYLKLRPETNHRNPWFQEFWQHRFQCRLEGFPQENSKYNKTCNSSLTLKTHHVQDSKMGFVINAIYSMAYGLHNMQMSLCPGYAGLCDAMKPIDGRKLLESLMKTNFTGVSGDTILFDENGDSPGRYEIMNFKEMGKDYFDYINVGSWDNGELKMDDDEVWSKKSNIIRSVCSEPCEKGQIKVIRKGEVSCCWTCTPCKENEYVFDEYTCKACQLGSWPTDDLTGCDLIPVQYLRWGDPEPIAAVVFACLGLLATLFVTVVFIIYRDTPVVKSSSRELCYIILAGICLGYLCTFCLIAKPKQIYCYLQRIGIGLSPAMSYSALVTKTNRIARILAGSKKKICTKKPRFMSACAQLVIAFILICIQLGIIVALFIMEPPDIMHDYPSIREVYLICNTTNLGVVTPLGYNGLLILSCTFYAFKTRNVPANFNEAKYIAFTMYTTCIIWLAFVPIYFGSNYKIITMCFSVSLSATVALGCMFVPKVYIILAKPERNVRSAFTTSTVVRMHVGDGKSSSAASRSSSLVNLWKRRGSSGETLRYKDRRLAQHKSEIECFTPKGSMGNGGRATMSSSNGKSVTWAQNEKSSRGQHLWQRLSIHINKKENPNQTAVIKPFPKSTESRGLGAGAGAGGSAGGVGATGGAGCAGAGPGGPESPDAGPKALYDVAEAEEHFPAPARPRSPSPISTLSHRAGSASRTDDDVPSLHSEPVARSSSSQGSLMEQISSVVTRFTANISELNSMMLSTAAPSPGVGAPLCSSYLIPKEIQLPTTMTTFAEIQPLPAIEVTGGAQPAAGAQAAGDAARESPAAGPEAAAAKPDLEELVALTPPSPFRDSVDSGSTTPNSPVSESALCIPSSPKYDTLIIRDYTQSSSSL
Sequence of wild-type (WT) full-length human mGlu1 receptor (Q13255 19-1194): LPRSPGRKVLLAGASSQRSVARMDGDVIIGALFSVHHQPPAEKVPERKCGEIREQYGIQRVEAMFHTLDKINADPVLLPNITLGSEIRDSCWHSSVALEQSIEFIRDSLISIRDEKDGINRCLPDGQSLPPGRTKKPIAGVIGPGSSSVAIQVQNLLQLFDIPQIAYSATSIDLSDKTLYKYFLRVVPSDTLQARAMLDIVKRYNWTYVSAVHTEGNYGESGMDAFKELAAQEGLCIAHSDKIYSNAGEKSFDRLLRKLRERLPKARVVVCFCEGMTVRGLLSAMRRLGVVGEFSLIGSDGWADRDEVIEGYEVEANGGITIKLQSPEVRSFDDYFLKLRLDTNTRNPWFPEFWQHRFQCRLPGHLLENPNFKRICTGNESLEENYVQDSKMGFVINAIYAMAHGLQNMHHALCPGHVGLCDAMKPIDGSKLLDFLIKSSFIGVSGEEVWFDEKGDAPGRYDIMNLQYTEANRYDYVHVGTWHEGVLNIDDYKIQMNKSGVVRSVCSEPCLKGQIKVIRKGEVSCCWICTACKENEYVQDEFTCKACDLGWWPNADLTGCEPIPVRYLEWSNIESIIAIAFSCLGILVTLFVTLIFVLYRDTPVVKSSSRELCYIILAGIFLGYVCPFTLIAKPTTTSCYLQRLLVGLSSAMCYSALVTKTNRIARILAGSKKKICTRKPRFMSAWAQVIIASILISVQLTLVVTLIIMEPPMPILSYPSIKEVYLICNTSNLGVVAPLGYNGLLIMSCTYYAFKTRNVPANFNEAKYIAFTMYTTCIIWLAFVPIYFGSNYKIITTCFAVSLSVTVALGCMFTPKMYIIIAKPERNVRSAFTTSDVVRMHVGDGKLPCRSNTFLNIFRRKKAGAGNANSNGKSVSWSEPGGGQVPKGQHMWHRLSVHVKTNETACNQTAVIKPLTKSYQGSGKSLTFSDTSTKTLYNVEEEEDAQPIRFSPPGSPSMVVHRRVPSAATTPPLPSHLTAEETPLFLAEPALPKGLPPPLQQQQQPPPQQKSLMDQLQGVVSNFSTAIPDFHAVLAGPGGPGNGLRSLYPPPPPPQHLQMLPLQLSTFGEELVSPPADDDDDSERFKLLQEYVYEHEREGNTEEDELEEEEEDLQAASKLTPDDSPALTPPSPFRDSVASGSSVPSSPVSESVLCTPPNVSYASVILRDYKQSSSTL
Sequence of human mGlu1 receptor (Q13255 581-860): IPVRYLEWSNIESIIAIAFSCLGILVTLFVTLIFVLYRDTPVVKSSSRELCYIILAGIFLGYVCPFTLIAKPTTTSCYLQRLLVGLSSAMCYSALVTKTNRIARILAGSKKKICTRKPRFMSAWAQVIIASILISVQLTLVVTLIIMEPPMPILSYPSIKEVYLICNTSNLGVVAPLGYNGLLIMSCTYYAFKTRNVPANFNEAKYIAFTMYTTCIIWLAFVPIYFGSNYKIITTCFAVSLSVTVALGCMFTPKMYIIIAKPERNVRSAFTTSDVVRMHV

| Compound | Ki (human mGlu1 receptor) [nM] | subtype selectivity (mGlu5) | mode of allosteric modulation [1] | IC50 (mGlu1 [2]) [nM] | fold lower potency than FITM (mGlu1 [3]) |
| --- | --- | --- | --- | --- | --- |
| CC(C)Nc1cc(-c2csc(N(C)C(=O)c3ccc(F)cc3)n2)ncn1 [FITM, 4-fluoro-N-(4-(6-(isopropylamino)pyrimidin-4-yl)thiazol-2-yl)-N-methylbenzamide] | 2.5 | selectivity for mGlu1 over mGlu5 | full NAM | 5 | – |
| CC(C)N(C)c1cc(-c2csc(N(C)C(=O)c3ccc(F)cc3)n2)ncn1 [compound 28] | – | – | – | 77 | approximately 10 fold |

Reference: article PMC3991565 (Science (New York, N.Y.), 2014)
